Source: patent publication US12697343B2, “Intravenous istaroxime for the treatment of acute heart failure” (Seismic Pharmaceuticals Operations LLC, priority 2021, dated 2026)
Structures can show the parent of a compound that is named as a salt.

Key:
[1] = test system: patients hospitalized for acute heart failure (AHF); assay: Clinical secondary endpoints: in-hospital worsening heart failure to day 4, readmissions/ED visits to day 30, length of stay; type: in vivo, human
Experimental: The primary efficacy endpoint was the change from baseline to 24 h after the start of the infusion in the E/e ratio assessed by tissue Doppler echocardiography. Secondary endpoints included the change from baseline to 24 h of other echocardiography parameters: LVEF, left ventricular end-systolic and end-diastolic volumes, stroke volume index, E, A, E/A ratio, and S′: changes in dyspnoea by visual analogue scale (VAS) and in NT-proBNP from baseline to 24 h: proportion of patients with hospital readmissions or emergency visits for cardiovascular reasons by day 30; proportion of patients with episodes of in-hospital worsening heart failure to day 4, and length of stay. In-hospital worsening heart failure was defined by the need to increase the dose or reinitiate intravenous therapy with diuretics and/or other inotropic agents to day 4. Safety endpoints were assessed throughout the study and included: incidence of adverse events (AEs): change in vital signs and in 12-lead electrocardiographic (ECG) parameters: incidence of clinically or haemodynamically significant episodes of supraventricular or ventricular arrhythmias detected by continuous ECG monitoring: standard laboratory parameters: renal function: cardiac troponin T (cTnT): incidence of cTnT elevations, and mortality at day 30. Elevations in cTnT were considered significant if they were >50% or >20% from baseline values, for patients with cTnT below or above the 99% upper reference limit at baseline, respectively.
The study was designed as a mechanistic and safety study to assess the effects of a 24 h istaroxime infusion in patients hospitalized for AHF. Based on the changes observed in the HORIZON-HF trial, we assumed that a sample size of at least 20 patients in the placebo group in each cohort with 2:1 randomization to istaroxime would provide sufficient power to assess the effect of istaroxime on the main haemodynamic parameters. Analyses were conducted using a pre-specified modified intention-to-treat (mITT) protocol, including all randomized patients in whom study drug infusion had been initiated and with at least […] available evaluation of efficacy after the baseline. Biomarker and eGFR values were analyzed using medians and inner/outer quartiles, and active treatment was compared to placebo using the Wilcoxon rank-sum test. Dyspnoea scores by VAS were analyzed using mixed model regression with treatment, center, time point, gender, baseline cTnT, presence of atrial fibrillation, treatment by time point interaction, baseline value, and baseline value by time point interaction in the model. Echocardiographic parameters were compared between treatment groups using linear regression with treatment in the model. Categorical variables were summarized as frequency and percent and compared between treatment groups using the Cochran-Mantel-Haenszel test, controlling for study site. AEs were recorded for all enrolled patients and were summarized as AEs, serious AEs (SAEs), AEs leading to discontinuation, and SAEs leading to death. All analyses were conducted using the SAS® System for Windows™, versions 9.1.3 and 9.4.

[2] = test system: AHF patients with systolic blood pressure (SBP) of 90-150 mmHg; conditions: 0.5, 1.0, and 1.5 μg/kg/min for 6 h; cited from earlier work
[3] = test system: dogs with chronic ischemic heart failure; conditions: cited from earlier work

In the case of `C[C@]12CCC(=NOCCN)C[C@@H]1C(=O)C[C@@H]1[C@@H]2CC[C@]2(C)C(=O)CC[C@@H]12` [Istaroxime, (E,Z)-3-((2-aminoethoxy)imino)androstane-6,17-dione hydrochloride], the “Length of stay, median” value ([1]; 0.5 μg/Kg/min) is reported as 7.0 days, the “Hospital readmission/ED visits to Day 30, count of patients” value ([1]; 0.5 μg/Kg/min (n = 41)) is reported as 4 and the “Hospital readmission/ED visits to Day 30, percent of patients” value ([1]; 0.5 μg/Kg/min (n = 41)) is reported as “(9.8%)”. For the same compound, the “Worsening heart failure to day 4, count of patients” value ([1]; 0.5 μg/Kg/min (n = 41)) was 1, the “Worsening heart failure to day 4, percent of patients” value ([1]; 0.5 μg/Kg/min (n = 41)) was “(2.4%)” and the “Length of stay, median” value ([1]; 1.0 μg/Kg/min) was 7.0 days. For the same compound, the “Hospital readmission/ED visits to Day 30, count of patients” value ([1]; 1.0 μg/Kg/min (n = 40)) was 4, the “Hospital readmission/ED visits to Day 30, percent of patients” value ([1]; 1.0 μg/Kg/min (n = 40)) was “(10%)” and the “Worsening heart failure to day 4, count of patients” value ([1]; 1.0 μg/Kg/min (n = 40)) was 3. The “Worsening heart failure to day 4, percent of patients” value ([1]; 1.0 μg/Kg/min (n = 40)) was “(7.5%)”, the cardiac index [2] was “increased only at the highest dose” and the “lusitropic effect assessed by increased mitral deceleration time” value [2] was “occurred only at the highest dose”. The “myocardial relaxation (e′ diastolic velocity, tissue Doppler)” value ([3]; compared to dobutamine) was “improved myocardial relaxation” and the peak heart rate ([3]; compared with dobutamine) was “significantly lower”.
